Key:
Assay in all cases: relative viability (nuclei count vs DMSO), 5 days (fraction); higher = more cells survive
QS11 + Alpelisib = compound: C1CC2=C(C1)C=C(C=C2)OC3=NC(=C4C(=N3)N(C=N4)CC5=CC=C(C=C5)C6=CC=CC=C6)N[C@@H](CC7=CC=CC=C7)CO [QS11] + Cc1nc(NC(=O)N2CCC[C@H]2C(N)=O)sc1-c1ccnc(C(C)(C)C(F)(F)F)c1 [Alpelisib] (partner 2 µM)
Procedure, shortened: (§1)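 Each reported value is a median over duplicate plates. It expresses relative viability: treated-well nuclei count divided by vehicle-well nuclei count. Lung cancer cell lines in 1536-well plates were dosed by pin tool a day after seeding, alone with one drug or with a fixed anchor-drug dose plus five library-drug doses (not always all listed) in √10 steps, and nuclei were counted after 5 days.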

QS11 + Linsitinib = compound: C1CC2=C(C1)C=C(C=C2)OC3=NC(=C4C(=N3)N(C=N4)CC5=CC=C(C=C5)C6=CC=CC=C6)N[C@@H](CC7=CC=CC=C7)CO [QS11] + C[C@]1(O)C[C@@H](c2nc(-c3ccc4ccc(-c5ccccc5)nc4c3)c3c(N)nccn32)C1 [Linsitinib] (partner 1 µM)
Procedure, shortened: as §1

QS11 + Crizotinib = compound: C1CC2=C(C1)C=C(C=C2)OC3=NC(=C4C(=N3)N(C=N4)CC5=CC=C(C=C5)C6=CC=CC=C6)N[C@@H](CC7=CC=CC=C7)CO [QS11] + C[C@@H](Oc1cc(-c2cnn(C3CCNCC3)c2)cnc1N)c1c(Cl)ccc(F)c1Cl [Crizotinib] (partner 1 µM)
Procedure, shortened: as §1

QS11 + Olaparib = compound: C1CC2=C(C1)C=C(C=C2)OC3=NC(=C4C(=N3)N(C=N4)CC5=CC=C(C=C5)C6=CC=CC=C6)N[C@@H](CC7=CC=CC=C7)CO [QS11] + O=C(c1cc(Cc2n[nH]c(=O)c3ccccc23)ccc1F)N1CCN(C(=O)C2CC2)CC1 [Olaparib] (partner 8 µM)
Procedure, shortened: as §1

Cell Line	relative viability (QS11 + Alpelisib; first compound 0.08 µM)	relative viability (QS11 + Alpelisib; first compound 0.253 µM)	relative viability (QS11 + Alpelisib; first compound 0.8 µM)	relative viability (QS11 + Alpelisib; first compound 2.53 µM)	relative viability (QS11 + Alpelisib; first compound 8 µM)	relative viability (QS11 + Linsitinib; first compound 0.08 µM)	relative viability (QS11 + Linsitinib; first compound 0.253 µM)	relative viability (QS11 + Linsitinib; first compound 0.8 µM)	relative viability (QS11 + Linsitinib; first compound 2.53 µM)	relative viability (QS11 + Linsitinib; first compound 8 µM)	relative viability (QS11 + Crizotinib; first compound 0.08 µM)	relative viability (QS11 + Crizotinib; first compound 0.253 µM)	relative viability (QS11 + Crizotinib; first compound 0.8 µM)	relative viability (QS11 + Crizotinib; first compound 2.53 µM)	relative viability (QS11 + Crizotinib; first compound 8 µM)	relative viability (QS11 + Olaparib; first compound 0.08 µM)	relative viability (QS11 + Olaparib; first compound 0.253 µM)	relative viability (QS11 + Olaparib; first compound 0.8 µM)	relative viability (QS11 + Olaparib; first compound 2.53 µM)	relative viability (QS11 + Olaparib; first compound 8 µM)
NCI-H2023	0.678	0.597	0.619	0.747	0.722	0.729	0.545	0.57	0.713	0.803	0.774	0.537	0.586	0.641	0.648	0.414	0.556	0.398	0.514	0.439
UMC-11	0.939	1.15	1.01	1.08	1.02	1.06	1.16	1.08	1.17	1.24	0.724	0.616	0.653	0.679	0.686	0.324	0.41	0.268	0.329	0.395
NCI-H23	0.647	0.638	0.557	0.508	0.69	0.624	0.528	0.561	0.477	0.404	0.473	0.462	0.473	0.385	0.44	0.297	0.226	0.245	0.269	0.264
NCI-H1355	0.776	0.748	0.779	0.689	0.763	0.762	0.791	0.671	0.84	0.712	0.99	1.58	0.823	0.915	0.972	0.624	0.732	0.693	0.678	0.75
NCI-H1734	0.681	0.719	0.697	0.581	0.65	0.897	0.988	0.851	0.825	0.848	0.65	0.656	0.658	0.555	0.619	0.625	0.649	0.608	0.587	0.507
EPLC-272H	0.931	0.934	1.04	1.04	1.1	1.16	1.47	1.12	1.09	1.23	0.861	0.962	1.03	0.835	1.13	0.707	0.888	0.716	0.808	0.505
LXF-289	1.07	1.05	0.764	0.906	0.85	0.977	1.01	0.681	0.896	0.72	0.814	0.807	0.678	0.687	0.617	1.03	1.1	0.823	0.95	0.963
NCI-H520	–	0.912	0.921	0.92	0.986	–	0.986	1.09	1.18	1.11	–	0.907	0.831	0.587	0.932	0.347	0.304	0.394	0.313	0.301
H3255	0.782	0.773	–	0.671	0.903	0.954	0.97	–	0.973	1.03	0.869	0.973	–	1.02	0.847	0.548	0.588	0.456	0.567	0.534
NCI-H460	0.515	0.498	0.554	0.3	0.0919	0.874	0.976	0.725	0.479	0.073	1.17	0.868	0.684	0.31	0.177	0.422	0.435	0.36	0.416	0.277
PC-14	1.08	0.982	0.911	1.01	1.02	1.04	1.08	0.758	0.906	0.901	0.851	0.896	0.871	0.848	0.911	0.253	0.339	0.249	0.272	0.38
HCC-15	0.749	1.01	–	0.936	0.731	0.965	0.993	–	0.857	0.841	0.807	0.927	–	0.803	0.779	0.668	0.79	0.61	0.735	0.634
NCI-H1437	1.1	1.13	0.834	0.9	0.879	1.12	1.26	0.698	0.771	0.86	0.99	1.04	0.862	0.747	0.744	0.661	0.635	0.673	0.625	0.541
COR-L23	0.828	0.665	0.698	0.589	0.617	0.938	1.01	0.767	0.784	0.625	0.672	0.642	0.481	0.447	0.481	0.302	0.322	0.303	0.271	0.288
NCI-H1975	0.654	0.727	0.747	0.887	0.9	1.1	1.04	0.926	1.31	1.39	1.08	1.03	0.853	1.16	0.817	0.814	0.891	0.814	1.07	0.688
NCI-H1666	0.917	1.03	0.708	0.587	0.382	0.853	0.644	0.644	0.53	0.464	0.995	0.808	0.668	0.52	0.432	0.78	0.75	0.697	0.693	0.516

Cell Line	relative viability (QS11 + Alpelisib; first compound 0.08 µM)	relative viability (QS11 + Alpelisib; first compound 0.253 µM)	relative viability (QS11 + Alpelisib; first compound 0.8 µM)	relative viability (QS11 + Alpelisib; first compound 2.53 µM)	relative viability (QS11 + Alpelisib; first compound 8 µM)	relative viability (QS11 + Linsitinib; first compound 0.08 µM)	relative viability (QS11 + Linsitinib; first compound 0.253 µM)	relative viability (QS11 + Linsitinib; first compound 0.8 µM)	relative viability (QS11 + Linsitinib; first compound 2.53 µM)	relative viability (QS11 + Linsitinib; first compound 8 µM)	relative viability (QS11 + Crizotinib; first compound 0.08 µM)	relative viability (QS11 + Crizotinib; first compound 0.253 µM)	relative viability (QS11 + Crizotinib; first compound 0.8 µM)	relative viability (QS11 + Crizotinib; first compound 2.53 µM)	relative viability (QS11 + Crizotinib; first compound 8 µM)	relative viability (QS11 + Olaparib; first compound 0.08 µM)	relative viability (QS11 + Olaparib; first compound 0.253 µM)	relative viability (QS11 + Olaparib; first compound 0.8 µM)	relative viability (QS11 + Olaparib; first compound 2.53 µM)	relative viability (QS11 + Olaparib; first compound 8 µM)
A-427	1.03	1.16	–	1.06	1.11	1.12	1.1	–	1.14	1.09	0.779	0.885	–	0.829	0.821	0.756	0.67	–	0.656	0.559
EKVX	0.895	0.821	–	0.86	0.906	1.04	0.995	–	1.02	0.982	1.13	1.03	–	0.749	1.2	0.829	0.768	0.715	0.822	1.01
NCI-H650	0.988	1	1.14	0.909	1.18	0.81	0.943	0.859	0.87	0.929	0.722	0.726	0.753	0.55	0.607	0.316	0.364	0.375	0.316	0.418
NCI-H2087	1.18	1.02	0.95	0.743	0.858	1.01	1.15	0.845	0.655	0.708	0.849	0.794	0.65	0.652	0.573	0.743	0.743	0.553	0.623	0.644
NCI-H1755	1.07	0.947	0.632	0.835	0.857	1.07	0.577	0.595	0.814	0.871	0.889	0.826	0.509	0.677	0.691	0.856	0.876	0.665	0.767	0.648
COR-L 105	0.931	0.946	1.13	0.745	0.771	0.964	0.706	0.929	0.732	0.883	1.04	0.735	0.616	0.618	0.702	0.764	0.56	0.674	0.716	0.66
NCI-H838	1.1	0.954	0.755	0.919	0.884	1.07	0.879	0.7	0.837	0.851	0.937	0.788	0.576	0.746	0.761	0.873	0.743	0.582	0.718	0.709
NCI-H1993	0.559	0.643	0.693	0.699	0.668	0.622	0.718	0.682	0.7	0.857	0.974	0.756	0.868	0.827	0.771	1.06	1.01	1.22	1.35	1.05
HARA	0.691	0.944	–	0.872	0.917	0.965	1.02	–	0.912	1.19	1.11	1.1	–	1.1	1.04	0.729	–	0.473	0.919	0.803
NCI-H1703	0.322	0.409	0.32	0.331	0.446	1.1	0.48	1.06	0.752	0.611	1.08	0.749	0.585	0.73	0.951	0.411	0.363	0.597	0.501	0.551
PC-3 [JPC-3]	1.07	0.998	1.1	1.05	1.03	0.939	0.978	0.964	0.947	0.97	0.957	0.97	0.949	1.03	1.01	–	1.17	1.15	1.24	1.22
ABC-1	0.89	1.02	0.932	0.945	1.21	0.955	0.646	0.88	0.801	0.929	0.942	1.18	0.959	0.913	0.912	0.655	0.833	0.85	0.563	1.04
NCI-H441	0.785	0.843	0.784	0.794	0.706	0.519	0.544	0.613	0.561	0.601	0.776	0.847	0.621	0.6	0.707	0.511	0.54	0.518	0.364	0.463
NCI-H2126	0.74	0.794	0.708	0.75	0.731	0.71	0.814	0.679	0.683	0.643	1.05	1	0.855	0.897	0.758	0.874	0.95	0.8	0.799	0.634
BEN	0.772	1.22	1.12	1.01	1.29	0.851	1.17	1.07	0.79	1.12	0.801	1.06	0.978	0.736	1.09	0.667	1.1	1.03	1.01	0.992
Calu-6	0.98	0.974	0.856	0.99	0.884	0.971	0.936	0.762	0.921	1.21	0.907	0.914	0.728	0.952	0.828	0.626	0.613	0.603	0.638	0.59

— the supplement of paper PMC10307832
